Each compound was assayed against AM2 S31N (serine→asparagine mutation at residue 31 in the M2 protein) (Influenza A virus, UniProt P0DOF5, S31N). Settings: not given.
Assay type: cell-based, influenza virus A/Udorn/72

SMILES	S31N OOcyte Inhibition at 100 uM (%)
c1csc(-c2ccc(CNC34CC5CC(CC(C5)C3)C4)cn2)c1 [Example 58a, N-((6-(thiophen-2-yl)pyridin-3-yl)methyl)adamantan-1-amine]	A (key: (A)=31-95%; (B)=0-30%)
Cc1cccc2nc(CNC34CC5CC(CC(C5)C3)C4)[nH]c12 [Example 184a, Adamantan-1-yl-(7-methyl-1H-benzoimidazol-2-ylmethyl)-amine]	A (key: (A)=31-95%; (B)=0-30%)
c1nc(CNC23CC4CC(CC(C4)C2)C3)no1 [Example 73a, Adamantan-1-yl-[1,2,4]oxadiazol-3-ylmethyl-amine]	A (key: (A)=31-95%; (B)=0-30%)
COc1ccc2[nH]c(CNC34CC5CC(CC(C5)C3)C4)cc2c1 [Example 182a]	A (key: (A)=31-95%; (B)=0-30%)
c1ccc(-c2ncc(CNC34CC5CC(CC(C5)C3)C4)cn2)nc1 [Example 64a, N-((2-(pyridin-2-yl)pyrimidin-5-yl)methyl)adamantan-1-amine]	B (key: (A)=31-95%; (B)=0-30%)
Oc1cc(-c2ccoc2)ccc1CNC12CC3CC(CC(C3)C1)C2 [Example 46a]	A (key: (A)=31-95%; (B)=0-30%)
c1csc(-c2nnc(CNC34CC5CC(CC(C5)C3)C4)s2)c1 [Example 151a, N-((5-(thiophen-2-yl)-1,3,4-thiadiazol-2-yl)methyl)adamantan-1-amine]	A (key: (A)=31-95%; (B)=0-30%)
Fc1ccc(-c2nc(CNC34CC5CC(CC(C5)C3)C4)no2)cc1 [Example 163a]	A (key: (A)=31-95%; (B)=0-30%)
c1ccc(-c2nc(CNC34CC5CC(CC(C5)C3)C4)cs2)cc1 [Example 132a, N-((2-phenylthiazol-4-yl)methyl)adamantan-1-amine]	B (key: (A)=31-95%; (B)=0-30%)
Cc1ccc(-c2nc(CNC34CC5CC(CC(C5)C3)C4)no2)cc1 [Example 128a, N-((5-(p-tolyl)-1,2,4-oxadiazol-3-yl)methyl)adamantan-1-amine]	A (key: (A)=31-95%; (B)=0-30%)
C1CCC(c2nc(CNC34CC5CC(CC(C5)C3)C4)no2)C1 [Example 109a, N-((5-cyclopentyl-1,2,4-oxadiazol-3-yl)methyl)adamantan-1-amine]	A (key: (A)=31-95%; (B)=0-30%)
c1csc(-c2noc(CNC34CC5CC(CC(C5)C3)C4)n2)c1 [Example 148a, N-((3-(thiophen-2-yl)-1,2,4-oxadiazol-5-yl)methyl)adamantan-1-amine]	A (key: (A)=31-95%; (B)=0-30%)
OC12CC3CC(C1)CC(NCc1ccc(Cl)s1)(C3)C2 [Example 189a, 3-[(5-Chloro-thiophen-2-ylmethyl)-amino]adamantan-1-ol]	B (key: (A)=31-95%; (B)=0-30%)
c1csc(-c2nc(CNC34CC5CC(CC(C5)C3)C4)no2)c1 [Example 146a, N-((5-(thiophen-2-yl)-1,2,4-oxadiazol-3-yl)methyl)adamantan-1-amine]	A (key: (A)=31-95%; (B)=0-30%)
c1c(CNC23CC4CC(CC(C4)C2)C3)noc1CN1CCOCC1 [Example 106a, N-((5-(morpholinomethyl)isoxazol-3-yl)methyl)adamantan-1-amine]	B (key: (A)=31-95%; (B)=0-30%)
c1ccc(C2=NOC(CNC34CC5CC(CC(C5)C3)C4)C2)cc1 (centres unmarked) [Example 167a, N-((3-phenyl-4,5-dihydroisoxazol-5-yl)methyl)adamantan-1-amine]	A (key: (A)=31-95%; (B)=0-30%)
Cc1ncc(CN(Cc2cnc(C)s2)C23CC4CC(CC(C4)C2)C3)s1 [Example 202a, N,N-bis((2-methylthiazol-5-yl)methyl)adamantan-1-amine]	B (key: (A)=31-95%; (B)=0-30%)
c1ccc(-c2noc(CNC34CC5CC(CC(C5)C3)C4)n2)cc1 [Example 123a, N-((3-phenyl-1,2,4-oxadiazol-5-yl)methyl)adamantan-1-amine]	A (key: (A)=31-95%; (B)=0-30%)
C[Si](C)(C)c1ccc(CNC23CC4CC(CC(O)(C4)C2)C3)cc1 [Example 193a, (1s,3r,5R,7S)-3-((4-(trimethylsilyl)benzyl)amino)adamantan-1-ol]	A (key: (A)=31-95%; (B)=0-30%)
c1cc(-c2cc(CNC34CC5CC(CC(C5)C3)C4)no2)cs1 [Example 150a, Adamantan-1-yl-(5-thiophen-3-yl-isoxazol-3-ylmethyl)-amine]	A (key: (A)=31-95%; (B)=0-30%)
c1cc2cn[nH]c2cc1CNC12CC3CC(CC(C3)C1)C2 [Example 43a, N-((1H-indazol-6-yl)methyl)adamantan-1-amine]	B (key: (A)=31-95%; (B)=0-30%)
c1cn(-c2ccc(CNC34CC5CC(CC(C5)C3)C4)s2)cn1 [Example 161a, N-((5-(1H-imidazol-1-yl)thiophen-2-yl)methyl)adamantan-1-amine]	B (key: (A)=31-95%; (B)=0-30%)
C(NC12CC3CC(CC(C3)C1)C2)c1noc(C2CC2)n1 [Example 166a]	A (key: (A)=31-95%; (B)=0-30%)

Same assay, conditions: pH 5.5

SMILES	S31N OOcyte Inhibition at 100 uM (%)
COc1cccc(-c2cc(CNC34CC5CC(CC(C5)C3)C4)no2)c1 [Example 39b, N-((5-(3-methoxyphenyl)isoxazol-3-yl)methyl)adamantan-1-amine]	A (key: (A)=31-95%; (B)=0-30%)
c1sc(CNC23CC4CC(CC(C4)C2)C3)cc1C1CC1 [Example 48b, N-((4-Cyclopropylthiophen-2-yl)methyl)adamantan-1-amine]	A (key: (A)=31-95%; (B)=0-30%)
CC(C)c1cc(CNC23CC4CC(CC(C4)C2)C3)no1 [Example 27b, N-((5-isopropylisoxazol-3-yl)methyl)adamantan-1-amine]	A (key: (A)=31-95%; (B)=0-30%)
CC(C)(C)c1ncc(CNC23CC4CC(CC(C4)C2)C3)s1 [Example 20b, N-((2-(tert-butyl)thiazol-5-yl)methyl)adamantan-1-amine]	A (key: (A)=31-95%; (B)=0-30%)
Clc1ccccc1-c1cc(CNC23CC4CC(CC(C4)C2)C3)no1 [Example 45b, N-((5-(2-chlorophenyl)isoxazol-3-yl)methyl)adamantan-1-amine]	A (key: (A)=31-95%; (B)=0-30%)
c1c(CNC23CC4CC(CC(C4)C2)C3)noc1C1CCCCC1 [Example 32b, N-((5-cyclohexylisoxazol-3-yl)methyl)adamantan-1-amine]	A (key: (A)=31-95%; (B)=0-30%)
c1nc(N2CCCCC2)ncc1CNC12CC3CC(CC(C3)C1)C2 [Example 58b, N-((2-(piperidin-1-yl)pyrimidin-5-yl)methyl)adamantan-1-amine]	A (key: (A)=31-95%; (B)=0-30%)
CC(NC12CC3CC(CC(C3)C1)C2)c1ccc(-c2ccccc2)cc1 (centres unmarked) [Example 4b, N-(1-([1,1′-biphenyl]-4-yl)ethyl)adamantan-1-amine]	B (key: (A)=31-95%; (B)=0-30%)
Oc1cc(-c2ccco2)ccc1CNC12CC3CC(CC(C3)C1)C2 [Example 7b, 2-((-Adamantan-1-ylamino)methyl)-5-(furan-2-yl)phenol]	A (key: (A)=31-95%; (B)=0-30%)
Oc1cc(-c2ccsc2)ccc1CNC12CC3CC(CC(C3)C1)C2 [Example 8b]	A (key: (A)=31-95%; (B)=0-30%)
COc1ccsc1-c1cc(CNC23CC4CC(CC(C4)C2)C3)no1 [Example 44b, N-((5-(3-methoxythiophen-2-yl)isoxazol-3-yl)methyl)adamantan-1-amine]	A (key: (A)=31-95%; (B)=0-30%)
COc1ccc(-c2noc(CNC34CC5CC(CC(C5)C3)C4)n2)cc1OC [Example 35b, N-((3-(3,4-dimethoxyphenyl)-1,2,4-oxadiazol-5-yl)methyl)adamantan-1-amine]	A (key: (A)=31-95%; (B)=0-30%)
CSc1ccc(-c2cc(CNCC34CC5CC(CC(C5)C3)C4)no2)cc1 [Example 40b, 1-((3r,5r,7r)-adamantan-1-yl)-N-((5-(4-(methylthio)phenyl)isoxazol-3-yl)methyl)methanamine]	A (key: (A)=31-95%; (B)=0-30%)
CC(C)(C)c1ccc(-c2ccc(CNC34CC5CC(CC(C5)C3)C4)s2)cc1 [Example 50b, N-((5-(4-(tert-Butyl)phenyl)thiophen-2-yl)methyl)adamantan-1-amine]	A (key: (A)=31-95%; (B)=0-30%)
FC(F)(F)Oc1ccc(-c2cc(CNC34CC5CC(CC(C5)C3)C4)no2)cc1 [Example 36b, N-((5-(4-(trifluoromethoxy)phenyl)isoxazol-3-yl)methyl)adamantan-1-amine]	B (key: (A)=31-95%; (B)=0-30%)
CCOC(=O)CN(C)c1ncc(CNC23CC4CC(CC(C4)C2)C3)cn1 [Example 60b, N-((2-methyl(ethylcarboxymethyl)aminopyrimidin-5-yl)methyl)adamantan-1-amine]	A (key: (A)=31-95%; (B)=0-30%)
c1csc(-c2nc(CNC34CC5CC(CC(C5)C3)C4)cs2)c1 [Example 11b, N-((2-(thiophen-2-yl)thiazol-4-yl)methyl)adamantan-1-amine]	A (key: (A)=31-95%; (B)=0-30%)
Cc1cccc(-c2ncc(CNC34CC5CC(CC(C5)C3)C4)cn2)c1 [Example 63b, N-((2-mtolylpyrimidin-5-yl)methyl)adamantan-1-amine]	A (key: (A)=31-95%; (B)=0-30%)
C[Si](C)(C)c1ccc(CNC23CC4CC(CC(C4)C2)C3)s1 [Example 75b, Adamantan-1-yl-(5-trimethylsilanyl-thiophen-2-ylmethyl)-amine]	A (key: (A)=31-95%; (B)=0-30%)
CC(NC12CC3CC(CC(C3)C1)C2)c1ccc(C(C)(C)C)cc1 (centres unmarked) [Example 3b, N-(1-(4-(tert-butyl)phenyl)ethyl)adamantan-1-amine]	B (key: (A)=31-95%; (B)=0-30%)
COc1ccc(-c2nc(CNC34CC5CC(CC(C5)C3)C4)no2)c(OC)c1 [Example 34b, N-((5-(2,4-dimethoxyphenyl)-1,2,4-oxadiazol-3-yl)methyl)adamantan-1-amine]	A (key: (A)=31-95%; (B)=0-30%)

Source: patent US9884832B2 (priority 2011, dated 2018)
